Laboratory results published in article PMC6563076 (2019).

Legend:
[1] = tested on: F10T (DNA, hairpin, hexaethylene glycol (HEG) linker between 10 and 11) TATAGCTATATATAGCTATA; assay: FRET melting; conditions: 10 mM KCl, 90 mM LiCl; 1 μM ligand, 200 nM DNA, 10 mM Li cacodylate; ΔT1/2 used as ΔTm
[2] = tested on: F21T (DNA, G4) GGGTTAGGGTTAGGGTTAGGG; assay: FRET melting; conditions: 1 μM ligand, 200 nM DNA, 10 mM Li cacodylate, ΔT1/2 used as ΔTm
[3] = tested on: FmycT (DNA, G4) TTGAGGGTGGGTAGGGTGGGTAA; assay: FRET melting; conditions: 1 mM KCl, 99 mM LiCl; 1 μM ligand, 200 nM DNA, 10 mM Li cacodylate; ΔT1/2 used as ΔTm
[4] = tested on: telo23 (DNA, G4) TAGGGTTAGGGTTAGGGTTAGGG; assay: CD titration; conditions: pH 7.4, 20 °C, 4.22 µM DNA
[5] = tested on: telo23 (DNA, G4) TAGGGTTAGGGTTAGGGTTAGGG; assay: 1H NMR; conditions: Na+ (25 mM sodium phosphate, 70 mM NaCl); pH 7.0, 298 K, 175 µM DNA, 2 equivalents ligand; imino signals lost
[6] = tested on: telo22 (DNA, G4) AGGGTTAGGGTTAGGGTTAGGG; assay: CD titration; conditions: Na+ (100 mM sodium phosphate); pH 7.4; conformational change similar to telo23

| ΔTm [1] [°C] | ΔTm ([2]; 10 mM KCl, 90 mM LiCl) [°C] | ΔTm ([2]; 100 mM NaCl) [°C] | ΔTm [3] [°C] | binding ([4]; K+ (100 mM potassium phosphate), no conformational change, ICD seen) | binding ([4]; Na+ (100 mM sodium phosphate), ligand unfolds the G4) | binding [5] | binding [6] | SMILES |
| --- | --- | --- | --- | --- | --- | --- | --- | --- |
| 0.1 ± 0.1 | 9.7 ± 0.5 | 5.4 ± 1.0 | 5.1 ± 1.4 | – | – | – | – | C[n+]1ccc(-c2ccc3c(c2)/C(=C2/CCc4ccc(-c5cc[n+](C)cc5)cc42)CC3)cc1 |
| 0.8±0.2 | 21.4±0.3 | 11.8±0.6 | 15.8±0.8 | yes | yes | yes | yes | C[n+]1ccc(-c2ccc3c(c2)/C(=C2\CCc4ccc(-c5cc[n+](C)cc5)cc42)CC3)cc1 |
